Measured values: patent publication US20220332700A1, “NOVEL APOPTOSIS SIGNAL-REGULATING KINASE 1 INHIBITORS” (MANKIND PHARMA LTD, priority 2019, published 2022)

What was measured:
[1] = target: T1, recombinant ASK1 (Homo sapiens, UniProt Q99683); test: ASK1 Biochemical Assay (HTRF KinEASE-STK S3); conditions: ATP 100 μM; read-out: Biochemical Assay IC50
T1 construct: purchased Carna Biosciences
How it was run: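 Recombinant ASK1 (5 ng) preincubated with compound 1 h at 23 °C in MOPS pH 7 buffer with Mg-acetate, DTT, NP40, glycerol, BSA and 1% DMSO. Inhibition calculated against vehicle after substrate-blank subtraction.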

[2] = target: T2, Human ASK1 (Homo sapiens, UniProt Q99683); test: ASK1 Cell Based Assay (phospho p38 read out in hASK1 transfected HEK293T-AP1 cells); conditions: HEK293T-AP1 cells, 1 mM hydrogen peroxide, phospho p38; read-out: Cell Based Assay IC50
T2 construct: expressed in transfected cells; host or cells: HEK293T-AP1
T2 sequence (Q99683 1-1374): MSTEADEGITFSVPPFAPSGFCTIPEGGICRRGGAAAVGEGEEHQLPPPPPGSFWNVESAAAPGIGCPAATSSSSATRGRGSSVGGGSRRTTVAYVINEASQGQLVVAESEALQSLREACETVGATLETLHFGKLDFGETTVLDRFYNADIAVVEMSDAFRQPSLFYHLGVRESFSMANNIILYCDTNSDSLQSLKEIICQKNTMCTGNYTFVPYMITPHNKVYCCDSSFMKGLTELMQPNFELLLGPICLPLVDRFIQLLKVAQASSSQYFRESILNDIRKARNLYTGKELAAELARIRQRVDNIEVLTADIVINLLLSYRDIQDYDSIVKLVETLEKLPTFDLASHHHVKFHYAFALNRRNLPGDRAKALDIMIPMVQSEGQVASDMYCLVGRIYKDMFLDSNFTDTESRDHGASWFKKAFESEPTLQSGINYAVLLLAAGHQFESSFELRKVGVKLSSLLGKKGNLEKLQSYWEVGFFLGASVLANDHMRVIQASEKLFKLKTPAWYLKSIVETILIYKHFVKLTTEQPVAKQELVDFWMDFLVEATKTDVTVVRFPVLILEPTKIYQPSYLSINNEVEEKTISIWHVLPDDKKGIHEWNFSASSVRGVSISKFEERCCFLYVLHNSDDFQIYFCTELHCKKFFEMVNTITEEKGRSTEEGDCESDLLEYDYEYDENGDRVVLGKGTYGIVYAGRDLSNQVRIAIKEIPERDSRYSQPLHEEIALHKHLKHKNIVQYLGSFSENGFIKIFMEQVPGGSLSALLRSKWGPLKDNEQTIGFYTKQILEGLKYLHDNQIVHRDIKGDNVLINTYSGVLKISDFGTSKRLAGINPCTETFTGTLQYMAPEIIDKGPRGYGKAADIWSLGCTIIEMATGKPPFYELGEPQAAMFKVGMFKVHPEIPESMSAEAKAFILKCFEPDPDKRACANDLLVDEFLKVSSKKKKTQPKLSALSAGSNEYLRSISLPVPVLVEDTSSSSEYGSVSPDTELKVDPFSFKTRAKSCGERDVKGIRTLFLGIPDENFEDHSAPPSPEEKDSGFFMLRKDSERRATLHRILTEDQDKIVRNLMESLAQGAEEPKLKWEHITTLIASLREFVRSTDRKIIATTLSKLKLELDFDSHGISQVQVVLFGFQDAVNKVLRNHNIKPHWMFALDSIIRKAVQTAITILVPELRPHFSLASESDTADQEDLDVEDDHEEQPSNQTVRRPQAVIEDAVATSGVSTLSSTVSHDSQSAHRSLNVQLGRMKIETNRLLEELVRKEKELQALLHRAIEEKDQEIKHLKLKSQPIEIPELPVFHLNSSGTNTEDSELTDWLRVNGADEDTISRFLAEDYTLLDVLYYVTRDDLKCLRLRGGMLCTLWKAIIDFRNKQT
How it was run: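 HEK293T-AP1 cells transfected with hASK1, after 24 h treated with compounds for 24 h (0.2% DMSO), then stimulated with 1 mM H2O2 for 1 h with compounds present.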

Structure (SMILES)	IC50 [1]	IC50 [2]
CC(C)n1cnnc1-c1cccc(N2CCN(c3ccc(N4CCOCC4)nc3)C2=O)n1 [Example 1101, 1-(6-(4-isopropyl-4H-1,2,4-triazol-3-yl)pyridin-2-yl)-3-(6-morpholinopyridin-3-yl)imidazolidin-2-one]	< 50 nM	190 nM
CC(C)n1cnnc1-c1cccc(N2CCN(c3cnc(N4CCOCC4)nc3)C2=O)n1 [Example 1103, 1-(6-(4-isopropyl-4H-1,2,4-triazol-3-yl)pyridin-2-yl)-3-(2-morpholinopyrimidin-5-yl)imidazolidin-2-one]	< 100 nM	> 100 nM
CC(C)n1cnnc1-c1cccc(N2CCN(c3ccc(-n4ccnc4)nc3)C2=O)n1 [Example 1104, 1-(6-(1H-imidazol-1-yl)pyridin-3-yl)-3-(6-(4-isopropyl-4H-1,2,4-triazol-3-yl)pyridin-2-yl)imidazolidin-2-one]	< 100 nM	> 100 nM
CC(C)n1cnnc1-c1cccc(N2CCN(c3ccc(N(C)C)nc3)C2=O)n1 [Example 1105, 1-(6-(dimethylamino)pyridin-3-yl)-3-(6-(4-isopropyl-4H-1,2,4-triazol-3-yl)pyridin-2-yl)imidazolidin-2-one]	< 100 nM	> 100 nM
CNC(=O)c1ccc(N2CCN(c3cccc(-c4nncn4C(C)C)n3)C2=O)cn1 [Example 1106, 5-(3-(6-(4-isopropyl-4H-1,2,4-triazol-3-yl)pyridin-2-yl)-2-oxoimidazolidin-1-yl)-N-methylpyridine-2-carboxamide]	< 100 nM	> 1000 nM
CC(C)n1cnnc1-c1cccc(N2CCN(c3ccc(N4CC(C#N)C4)nc3)C2=O)n1 [Example 1107, 1-(5-(3-(6-(4-isopropyl-4H-1,2,4-triazol-3-yl)pyridin-2-yl)-2-oxoimidazolidin-1-yl)pyridin-2-yl)azetidine-3-carbonitrile]	< 50 nM	< 100 nM
CC(C)n1cnnc1-c1cccc(N2CCN(c3cccc(N4CCOCC4)c3)C2=O)n1 [Example 1108, 1-(6-(4-isopropyl-4H-1,2,4-triazol-3-yl)pyridin-2-yl)-3-(3-morpholinophenyl)imidazolidin-2-one]	> 100 nM	> 1000 nM
CC(C)n1cnnc1-c1cccc(N2CCN(c3ccc(C(=O)NC4CC4)nc3)C2=O)n1 [Example 1109, N-cyclopropyl-5-(3-(6-(4-isopropyl-4H-1,2,4-triazol-3-yl)pyridin-2-yl)-2-oxoimidazolidin-1-yl)pyridine-2-carboxamide]	< 100 nM	> 1000 nM
CC(C)NC(=O)c1ccc(N2CCN(c3cccc(-c4nncn4C(C)C)n3)C2=O)cn1 [Example 1110, N-isopropyl-5-(3-(6-(4-isopropyl-4H-1,2,4-triazol-3-yl)pyridin-2-yl)-2-oxoimidazolidin-1-yl)pyridine-2-carboxamide]	< 100 nM	> 1000 nM
CC(C)n1cnnc1-c1cccc(N2CCN(Cc3ccc(N4CCOCC4)cc3)C2=O)n1 [Example 1112, 1-(4-morpholinobenzyl)-3-(6-(4-isopropyl-4H-1,2,4-triazol-3-yl)pyridin-2-yl)imidazolidin-2-one]	< 100 nM	> 1000 nM
CC(C)n1cnnc1-c1cccc(N2CCN(c3ccc(C(C#N)N4CCOCC4)nc3)C2=O)n1 (stereo not shown) [Example 1113, 2-(5-(3-(6-(4-isopropyl-4H-1,2,4-triazol-3-yl)pyridin-2-yl)-2-oxoimidazolidin-1-yl)pyridin-2-yl)-2-morpholinoacetonitrile]	< 100 nM	> 1000 nM
CC(c1ccc(N2CCN(c3cccc(-c4nncn4C(C)C)n3)C2=O)cc1)N1CCOCC1 (stereo not shown) [Example 1114, 1-(6-(4-isopropyl-4H-1,2,4-triazol-3-yl)pyridin-2-yl)-3-(4-(1-morpholinoethyl)phenyl)imidazolidin-2-one]	< 10 nM	> 1000 nM
CC(C)n1cnnc1-c1cccc(N2CCN(c3ccc(N4CC(C(N)=O)C4)nc3)C2=O)n1 [Example 1115, 1-(5-(3-(6-(4-isopropyl-4H-1,2,4-triazol-3-yl)pyridin-2-yl)-2-oxoimidazolidin-1-yl)pyridin-2-yl)azetidine-3-carboxamide]	< 100 nM	> 1000 nM
CNC(=O)C1CCN(c2ccc(N3CCN(c4cccc(-c5nncn5C(C)C)n4)C3=O)cn2)CC1 [Example 1116, 1-(5-(3-(6-(4-isopropyl-4H-1,2,4-triazol-3-yl)pyridin-2-yl)-2-oxoimidazolidin-1-yl)pyridin-2-yl)-N-methylpiperidine-4-carboxamide]	< 50 nM	< 100 nM
COCCCNc1ccc(N2CCN(c3cccc(-c4nncn4C(C)C)n3)C2=O)cn1 [Example 1118, 1-(6-(3-methoxypropylamino)pyridin-3-yl)-3-(6-(4-isopropyl-4H-1,2,4-triazol-3-yl)pyridin-2-yl)imidazolidin-2-one]	< 100 nM	> 1000 nM
CC(C)n1cnnc1-c1cccc(N2CCN(c3ccc(S(C)(=O)=O)s3)C2=O)n1 [Example 1123, 1-(6-(4-isopropyl-4H-1,2,4-triazol-3-yl)pyridin-2-yl)-3-(5-(methylsulfonyl)thiophen-2-yl)imidazolidin-2-one]	> 100 nM	> 1000 nM
CC(C)n1cnnc1-c1cccc(N2CCN(c3ccc4c(c3)C(C)(C)CS4(=O)=O)C2=O)n1 [Example 1124, 1-(3,3-dimethyl-1,1-dioxido-2,3-dihydrobenzo[b]thiophen-5-yl)-3-(6-(4-isopropyl-4H-1,2,4-triazol-3-yl)pyridin-2-yl)imidazolidin-2-one]	< 100 nM	> 1000 nM
CC(C)n1cnnc1-c1cccc(N2CCN(c3ccc4c(ccn4C)c3)C2=O)n1 [Example 1125, 1-(6-(4-isopropyl-4H-1,2,4-triazol-3-yl)pyridin-2-yl)-3-(1-methyl-1H-indol-5-yl)imidazolidin-2-one]	< 100 nM	> 1000 nM
CC(C)n1cnnc1-c1cccc(N2CCN(c3ccc(OCCS(C)(=O)=O)cc3)C2=O)n1 [Example 1126, 1-(4-(2-(methylsulfonyl)ethoxy)phenyl)-3-(6-(4-isopropyl-4H-1,2,4-triazol-3-yl)pyridin-2-yl)imidazolidin-2-one]	< 100 nM	> 1000 nM
CNC(=O)C1CCN(Cc2ccc(N3CCN(c4cccc(-c5nncn5C(C)C)n4)C3=O)cc2)CC1 [Example 1128, 1-(4-(3-(6-(4-isopropyl-4H-1,2,4-triazol-3-yl)pyridin-2-yl)-2-oxoimidazolidin-1-yl)benzyl)-N-methylpiperidine-4-carboxamide]	< 100 nM	> 1000 nM
CC(C)C(c1ccc(N2CCN(c3cccc(-c4nncn4C(C)C)n3)C2=O)cc1)N1CCOCC1 (stereo not shown) [Example 1129, 1-(6-(4-isopropyl-4H-1,2,4-triazol-3-yl)pyridin-2-yl)-3-(4-(2-methyl-1-morpholinopropyl)phenyl)imidazolidin-2-one]	< 100 nM	> 1000 nM
CNC(=O)[C@@H]1CCN(c2ccc(N3CCN(c4cccc(-c5nncn5C(C)C)n4)C3=O)cc2)C1 [Example 1130, (R)-1-(4-(3-(6-(4-isopropyl-4H-1,2,4-triazol-3-yl)pyridin-2-yl)-2-oxoimidazolidin-1-yl)phenyl)-N-methylpyrrolidine-3-carboxamide]	< 50 nM	< 100 nM
CNC(=O)[C@H]1CCN(c2ccc(N3CCN(c4cccc(-c5nncn5C(C)C)n4)C3=O)cc2)C1 [Example 1131, (S)-1-(4-(3-(6-(4-isopropyl-4H-1,2,4-triazol-3-yl)pyridin-2-yl)-2-oxoimidazolidin-1-yl)phenyl)-N-methylpyrrolidine-3-carboxamide]	< 100 nM	1560 nM
